Patent publication US10959963B2, “Method for the treatment of fatty liver disease” (Golden Biotechnology Corporation, priority 2013, dated 2021)

Key:
Type in all cases: in vivo
[1] = system: C57BL/6 mice; experiment: Fatty liver disease caused by non-chemical injury (STZ + high-fat diet Metabolic Syndrome model), histology and blood/plasma biochemistry; conditions: 48 mg/kg oral twice a day
Text: (§1) In order to simulate an unhealthy diet tendency in humans, such as excess consumption of high caloric food, the example constructs an animal model using […] fed a high fat diet to evaluate the effects of chronic liver injury.
(§2) The assay simulates liver disease caused by a high fat diet through a “Metabolic Syndrome” model. That is, the model is different from conventional chemical induced models caused by toxic components such as CCl4. This model is distinguishable from the models caused by virus or alcohol.
(§3) The establishment of a long term high-fat diet is described as follows: First, the C57BL/6 mice were obtained from Charles River Laboratories Japan (Kanagawa, Japan). Animals were housed under specific-pathogen-free (SPF) conditions. The liver injury was developed in 18 male mice by subcutaneous injection of Streptozotocin (STZ) 2 days after birth (day 2). After 4 weeks, a high-fat commercial rodent diet ad libitum (CLEA JAPAN) were supplied. These mice were randomized into 3 groups before the treatment. The test compound was administered in a volume of 10 ml/kg twice a day for three weeks. In the control group (group A), six […] were fed with vehicle (corn oil from Sigma Chemical Co.) via intubation. Six mice in group B were orally administered vehicle and the test compound at a dose of 48 mg/kg twice a day (96 mg/kg per day).
(§4) (1) HE Staining. The HE staining method is performed as follows: Liver slices are cut from the livers' left side, embedded in Tissue-Tek® OCT™ Compounds (Sakura Finetek, Japan), snap frozen in liquid nitrogen, and stored at −80° C. 5 μm sections are cut, air-dried, fixed in acetone, air dried again and finally washed with phosphate buffered saline (PBS). Then, in the hematoxylin and eosin staining method, liver sections will be prefixed in a Bouin solution (formalin-acetic acid) for one week and then stained with Lillie-Mayer's Hematoxylin (Muto Pure Chemicals, Japan) and eosin solution (Wako, Japan) to visualize the lipid deposition, inflammations, cell necrosis and fibrosis, or stained with Masson's trichromic solution to visualize extra cellular matrix and collagen fibers of liver fibrosis development.
(§5) (2) Sirius Red Staining. The Sirius Red staining method is performed as follows: Liver slices are cut from the livers' left side, embedded in Tissue-Tek® OCT™ Compounds (Sakura Finetek, Japan), snap frozen in liquid nitrogen, and stored at −80° C. 5 μm sections are cut, air-dried, fixed in acetone, air dried again and finally washed with phosphate buffered saline (PBS). Then, liver sections are stained with a Picro-Sirius Red Solution (Waldeck GmbH & KG, Germany) to observe collagen deposition.
(§6) (3) Immunohistochemistry of Collagen Type 3. The immunohistochemistry assay for collagen Type 3 is performed as follows: Liver slices are cut from the livers' left side, embedded in Tissue-Tek® OCT™ Compounds (Sakura Finetek, Japan), snap frozen in liquid nitrogen, and stored at −80° C. 5 μm sections are cut, air-dried, fixed in acetone, air dried again and finally washed with phosphate buffered saline (PBS). For immunohistochemistry, endogenous peroxidase activity will be blocked by using 0.03% H2O2 for 5 minutes, followed by incubation with Block Ace (Dainippon Sumitomo Pharm, Japan) for 10 minutes. The sections will be incubated with the optimal dilution of anti-Type 3 collagen antibody overnight at 4° C. After incubation with an appropriate secondary antibody, the substrate reactions are performed using DAB/H2O2 solution (Nichirei, Japan).
(§7) (1) Whole Blood Glucose. Blood samples were collected in heparinized syringes (Novo-Heparin 5,000 units/5 ml, Mochida Pharmaceutical, Japan) by cardiac puncture, kept on ice and centrifuged at 1,000×g at 4° C. for 15 minutes. The supernatant was collected and stored at −80° C. until use. Blood glucose was measured in whole blood samples using G Checker (Sanko Junyaku Co. Ltd., Japan). […]

[2] = system: C57BL/6 mice; experiment: Fibrosis of steatohepatitis caused by non-chemical injury (STZ + high-fat diet model), histology and blood/plasma biochemistry
Text: as §1, §2, §3, §4, §5, §6, §7

[3] = system: C57BL/6 mice; experiment: Reduction of fatty liver condition by Compound 1 with ergosterol versus Compound 1 alone (STZ + high-fat diet model), liver histology; conditions: Compound 1 48 mg/kg twice a day oral, with or without ergosterol 12 mg/kg twice a day

COC1=C(OC)C(O)C(C/C=C(\C)CC/C=C(\C)CCC=C(C)C)C(C)C1=O (stereo not shown) [Compound 1, 4-hydroxy-2,3-dimethoxy-6-methyl-5 (3,7,11-trimethyl-dodeca-2,6,10-trienyl)-cyclohex-2-enone] was tested, and the “collagen deposition around the central veins and the bile ducts, Sirius red staining” value ([1]; compared to vehicle Group A) was “reduced”, the “collagen fibers in the sinusoidal area, collagen Type 3 immunostaining” value ([1]; compared to vehicle Group A) was “tended to reduce the thickness and/or the length of the collagen fibers” and the “infiltration of inflammatory cells, HE-stained liver sections” value ([1]; compared to vehicle Group A) was “tended to decrease the infiltration of inflammatory cells”. The “macro-vesicular fat deposition, HE-stained liver sections” value ([1]; compared to vehicle Group A) was “tended to decrease the macro-vesicular fat deposition”, the “plasma ALT level” value ([1]; vehicle Group A 64±64) was 34±10 U/L and the “plasma AST level” value ([1]; vehicle Group A 202±177) was 141±35 U/L. For the same compound, the “whole blood glucose level” value ([1]; vehicle Group A 636±137) was 580 ± 122 mg/dL, the “plasma triglyceride (TG)” value ([1]; vehicle Group A 643±402) was 229 ± 144 mg/dL and the “collagen deposition around the central veins and the bile ducts, Sirius red staining” value ([2]; compared to vehicle Group A) was “reduced”. The “collagen fibers in the sinusoidal area, collagen Type 3 immunostaining” value ([2]; compared to vehicle Group A) was “tended to reduce the thickness and/or the length of the collagen fibers”, the “macro-vesicular fat deposition, HE-stained liver sections” value ([2]; compared to vehicle Group A) was “tended to decrease the macro-vesicular fat deposition” and the “plasma ALT level” value ([2]; vehicle Group A 47±22) was 38±11 U/L. The “plasma AST level” value ([2]; vehicle Group A 143±42, change not significant) was 167±87 U/L, the “whole blood glucose level” value ([2]; vehicle Group A 728±109) was 566 ± 65 mg/dL and the “plasma triglyceride (TG)” value ([2]; vehicle Group A 758±877) was 704 ± 450 mg/dL. The “collagen deposition, Sirius red staining” value ([3]; vs control group) was “tended only slightly to decrease the collagen deposition”, the “collagen deposition (thickness of collagen fibers in the sinusoidal area), collagen Type 3 immunostaining” value ([3]; vs vehicle) was “tended to reduce the collagen deposition” and the “infiltration of inflammatory cells, HE-stained liver sections” value ([3]; vs vehicle) was “did not affect the infiltration of inflammatory cells”. The “macro vesicular fat deposition, HE-stained liver sections” value ([3]; vs vehicle) was “tended to decrease the macro vesicular fat deposition”.
